Test results taken from patent US20260027066A1, “NANOSCALE MATRIMERES” (THE BOARD OF TRUSTEES OF THE UNIVERSITY OF ILLINOIS, priority 2022, published 2026).

Legend:
[1] = test system: FN^+ matrimeres secreted from MSCs; assay: Effects of pharmacological modulators on FN+ matrimere secretion from MSCs; format: cell-based, mouse; settings: 24 hours in culture with drug vs DMSO control
Protocol: FIGS. 6A-6C show the effects of pharmacological modulators on FN^+ matrimere secretion. (FIG. 6A) Overview of the potential biogenesis pathway for FN^+ matrimeres, known regulators, and their pharmacological modulators. (FIG. 6B) Total number of nanostructures per MSC after 24 hours in culture with drugs or DMSO control. (FIG. 6C) Percent of FN^+ particles in MSC-secreted nanostructures. (FIG. 6D) Total number of FN^+ particles per cell. *p<0.05. n=3 experiments. p-values from one-way ANOVA followed by Tukey's post-test. All data are shown as mean±s.d. BMS-P5 (CAS No. 1550371-22-6); Bafilomycin-A1 (BafA1, CAS No. 88899-55-2); curcumin analog C1 (CA-C1, CAS No. 39777-61-2); ML-SA5 (CAS No. 2418670-70-7).
For excess DNA to be released from the nucleus, arginine in histone undergoes modification from positive to neutral charge via citrullination, which is mediated by peptidylarginine deiminase (PAD) (FIG. 6A). […] Most cells (>90%) remained viable after drug treatment. Thus, autophagy and lysosome are potential mediators of FN^+ matrimere biogenesis.

[2] = test system: human umbilical vein endothelial cell (HUVEC) monolayer; assay: Transendothelial electrical resistance (TEER) assay of endothelial monolayer after LPS treatment; format: cell-based; settings: cilengitide 200 nM
Protocol: (FIG. 3A) TEER kinetics of the human umbilical vein endothelial cell (HUVEC) monolayer showing the rescue of LPS (1 μM)—compromised TEER by the CD63-depleted fraction of MSC-secreted nanostructures. (FIG. 3B) Changes in TEER from 6.5 hours to 24 hours after washing out LPS followed by treatment. ****p<0.0001. n=3 experiments. p-values were derived from one-way ANOVA followed by Dunnett's T3 post-test. All data are shown as mean±s.d.
FIG. 8A-8B show the effects of reconstituted FN-DNA matrimeres on the recovery of TEER after 6 hours LPS (1 μM) treatment in vitro. (FIG. 8A) TEER kinetics. (FIG. 8B) Percentage of TEER recovery. n=3 experiments.
The effect of depleting different mouse MSC-secreted nanostructure subpopulations on their ability to reverse hyperpermeability of the endothelial cell monolayer after LPS treatment in vitro was assessed by a transendothelial electrical resistance (TEER) assay. TEER was decreased with LPS over 6 hours, while TEER was only partially rescued after washing out LPS in 24 hours. […] Competitive inhibition of RGD-binding integrins by cilengitide (cyclic RGD, 200 nM) impaired the ability of CD63-depleted fraction to restore TEER (FIG. 3B). […]
It was subsequently determined whether in vitro reconstituted FN-DNA particles could restore permeability of the endothelial cell monolayer after LPS treatment. […]

| Compound | FN^+ matrimeres secreted from MSCs [1] | FN^+ particle number per cell [1] | further results |
| --- | --- | --- | --- |
| COc1cc(C(=O)N2C[C@H](N)CC[C@@H]2C)cc2nc(-c3cc4cccnc4n3CC3CC3)n(C)c12 [BMS-P5] | decreased |  |  |
| CN(C)S(=O)(=O)c1ccc(S(=O)(=O)Nc2cccc(Cl)c2N2CCCCC2)cc1 [ML-SA5, N′-[3-Chloro-2-(1-piperidinyl)phenyl]-N,N-dimethyl-1,4-benzenedisulfonamide] |  | significantly increased |  |
| CO/C1=C\C(C)=C\[C@@H](C)[C@@H](O)[C@@H](C)C/C(C)=C/C=C/[C@H](OC)[C@@H]([C@@H](C)[C@@H](O)[C@H](C)[C@@]2(O)C[C@@H](O)[C@H](C)[C@@H](C(C)C)O2)OC1=O [bafilomycin-A1] | decreased |  |  |
| CC(C)[C@H]1C(=O)N[C@@H](CCCN=C(N)N)C(=O)NCC(=O)N[C@@H](CC(=O)O)C(=O)N[C@H](Cc2ccccc2)C(=O)N1C [cilengitide] |  |  | effect on ability of reconstituted FN-DNA particles to restore TEER [2]: partially impaired; effect on ability of CD63-depleted fraction to restore TEER ([2]; competitive inhibition of RGD-binding integrins): impaired |
| COc1ccccc1/C=C/C(=O)/C=C/c1ccccc1OC [curcumin analog C1, (1E,4E)-1,5-bis(2-methoxyphenyl)-1,4-pentadien-3-one] |  | significantly increased |  |
